Values of other authors in US11690800B2, “Non-irritating, non-blurring, photostable ophthalmic sunscreen composition” (A. EBBIE SOROUDI, M.D., M.S., A PROFESSIONAL MEDICAL …, priority 2014, dated 2023).

Legend:
[1] = oil phase and water phase of a sunscreen
[2] = formulated into a dermatologic sunscreen

dissolution in oil or water phase [1]: dissolves poorly in both | skin penetration [2]: minimal skin penetration
Structure (SMILES): CC(C)(C)CC(C)(C)c1cc(Cc2cc(C(C)(C)CC(C)(C)C)cc(-n3nc4ccccc4n3)c2O)c(O)c(-n2nc3ccccc3n2)c1 [Bisoctrizole, 2,2′-methanediylbis[6-(2H-benzotriazol-2-yl)-4-(2,4,4-trimethylpentan-2-yl)phenol]]
